Where two headings read alike, the source gives them in different places.
How the values were obtained:
crabgrass = test: Example 1: pot test, foliar treatment, visually observed growth inhibition of crabgrass; format: in vivo
From the text: (§1) When the herbicidal activity in a case where two active ingredients are combined, is larger than the simple sum of the respective herbicidal activities of the two active ingredients (the expected activity), it is called a synergistic effect. The activity expected by the combination of two active ingredients can be calculated as follows (Colby S. R., “Weed”, vol. 15, p. 20-22, 1967). E=α+β−(α×β+100) where
(§2) α: growth inhibition rate when treated with x (g/ha) of herbicide X,
(§3) β: growth inhibition rate when treated with y (g/ha) of herbicide Y,
(§4) E: growth inhibition rate expected when treated with x (g/ha) of herbicide X and y (g/ha) of herbicide Y.
(§5) That is, when the actual growth inhibition rate (measured value) is larger than the growth inhibition rate by the above calculation (calculated value), the activity by the combination can be regarded as showing a synergistic effect.
(§6) Upland field soil was put into a 1/1,000,000 hectare pot, and seeds of various plants were sown. When the respective plants reached predetermined leaf stage, herbicidal compositions in predetermined amounts were diluted with water in an amount corresponding to 300 L/ha and applied for foliar treatment by a small sprayer.
(§7) Further, in accordance with the above Colby's formula, the growth inhibition rate (calculated value) was calculated. In Tables, with respect to the compound A, Compound Nos. in Table 1 or 3 are described, and with respect to other herbicidal compounds, common names are described.

velvetleaf = test: Example 1: pot test, foliar treatment, visually observed growth inhibition of velvetleaf; format: in vivo, Abutilon theophrasti MEDIC.
From the text: as §1, §2, §3, §4, §5, §6, §7

[1] = Abutilon theophrasti, foliar, 2.5 to 3.3 leaf stage, 21st day after application, read-out: Growth inhibition rate (%) of velvetleaf, Measured value
[2] = Abutilon theophrasti, foliar, 3.2 to 4.1 leaf stage, 21st day after application, read-out: Growth inhibition rate (%) of velvetleaf, Measured value

SMILES: CON(C)C(=O)Nc1ccc(Cl)c(Cl)c1 [Linuron]
- inhibition at 250 g/ha (crabgrass; Digitaria sanguinalis, foliar, 3.5 to 4.2 leaf stage, 14th day after application, read-out: Growth inhibition rate (%) of crabgrass, Measured value): 20%
- inhibition at 500 g/ha (crabgrass; Digitaria sanguinalis, foliar, 3.5 to 4.2 leaf stage, 14th day after application, 500 g/ha, read-out: Growth inhibition rate (%) of crabgrass, Measured value): 35%
- inhibition at 250 g/ha (velvetleaf; Abutilon theophrasti, foliar, 3.3 to 4.3 leaf stage, 20th day after application, 250 g/ha, read-out: Growth inhibition rate (%) of velvetleaf, Measured value): 55%
- inhibition at 500 g/ha (velvetleaf; Abutilon theophrasti, foliar, 3.3 to 4.3 leaf stage, 20th day after application, 500 g/ha, read-out: Growth inhibition rate (%) of velvetleaf, Measured value): 93%

SMILES: CCCCCCCCSC(=O)Oc1cc(Cl)nnc1-c1ccccc1 [Pyridate]
- inhibition at 100 g/ha (crabgrass; Digitaria sanguinalis, foliar, 3.0 to 4.3 leaf stage, 21st day after application, 100 g/ha, read-out: Growth inhibition rate (%) of crabgrass, Measured value): 0%
- inhibition at 200 g/ha (crabgrass; Digitaria sanguinalis, foliar, 3.0 to 4.3 leaf stage, 21st day after application, 200 g/ha, read-out: Growth inhibition rate (%) of crabgrass, Measured value): 0%
- inhibition at 200 g/ha (crabgrass; Digitaria sanguinalis, foliar, 3.2 to 4.3 leaf stage, 21st day after application, 200 g/ha, read-out: Growth inhibition rate (%) of crabgrass, Measured value): 0%
- inhibition at 200 g/ha (crabgrass; Digitaria sanguinalis, foliar, 4.1 to 5.3 leaf stage, 20th day after application, 200 g/ha, read-out: Growth inhibition rate (%) of crabgrass, Measured value): 5%
- inhibition at 200 g/ha (velvetleaf; Abutilon theophrasti, foliar, 3.2 to 4.3 leaf stage, 21st day after application, 200 g/ha, read-out: Growth inhibition rate (%) of velvetleaf, Measured value): 0%

SMILES: O=C(O)CNCP(=O)([O-])O.[K+] [Glyphosate-potassium]
- Growth inhibition rate (%) of crabgrass, Measured value (crabgrass; 3.3 to 4.2 leaf stage, 28th day after application, 75 g/ha): 0%

SMILES: N#Cc1cc(Br)c(O)c(Br)c1 [Bromoxynil, bromoxynil, reference compound]
- inhibition at 165 g/ha (crabgrass; Digitaria sanguinalis, foliar, 2.7 to 3.6 leaf stage, 21st day after application, read-out: Growth inhibition rate (%) of crabgrass, Measured value): 0%
- inhibition at 77 g/ha (crabgrass; Digitaria sanguinalis, foliar, 4.0 to 5.0 leaf stage, 21st day after application, 77 g/ha, read-out: Growth inhibition rate (%) of crabgrass, Measured value): 0%
- inhibition at 165 g/ha (crabgrass; Digitaria sanguinalis, foliar, 4.0 to 5.0 leaf stage, 21st day after application, read-out: Growth inhibition rate (%) of crabgrass, Measured value): 0%
- inhibition at 62.5 g/ha (velvetleaf; Abutilon theophrasti, foliar, 2.4 to 3.2 leaf stage, on the 22nd day after application, foliar, active ingredient amount 62.5 g/ha, read-out: Growth inhibition rate (%) of velvetleaf, Measured value): 35%
- inhibition at 77 g/ha (velvetleaf; [1]): 30%
- inhibition at 165 g/ha (velvetleaf; [1]): 40%
- inhibition at 77 g/ha (velvetleaf; [2]): 0%
- inhibition at 165 g/ha (velvetleaf; [2]): 30%
- inhibition at 165 g/ha (velvetleaf; Abutilon theophrasti, foliar, 4.0 to 4.4 leaf stage, 22nd day after application, read-out: Growth inhibition rate (%) of velvetleaf, Measured value): 50%

SMILES: COCC(C)N(C(=O)CCl)c1c(C)csc1C (stereo not shown) [Dimethenamid]
- inhibition at 125 g/ha (velvetleaf; Abutilon theophrasti, foliar, 2.0 to 2.5 leaf stage, 21st day after application, 125 g/ha, read-out: Growth inhibition rate (%) of velvetleaf, Measured value): 0%

SMILES: COc1nc(C)nc(NC(=O)NS(=O)(=O)c2ccccc2CCC(F)(F)F)n1 [Prosulfuron]
- inhibition at 15 g/ha (crabgrass; Digitaria sanguinalis, foliar, 3.0 to 4.3 leaf stage, 21st day after application, 15 g/ha, read-out: Growth inhibition rate (%) of crabgrass, Measured value): 0%
- inhibition at 30 g/ha (crabgrass; Digitaria sanguinalis, foliar, 3.0 to 4.3 leaf stage, 21st day after application, read-out: Growth inhibition rate (%) of crabgrass, Measured value): 0%
- inhibition at 15 g/ha (crabgrass; Digitaria sanguinalis, foliar, 3.2 to 4.1 leaf stage, 14th day after application, 15 g/ha, read-out: Growth inhibition rate (%) of crabgrass, Measured value): 0%
- inhibition at 30 g/ha (crabgrass; Digitaria sanguinalis, foliar, 3.2 to 4.1 leaf stage, 14th day after application, read-out: Growth inhibition rate (%) of crabgrass, Measured value): 10%
- inhibition at 15 g/ha (crabgrass; Digitaria sanguinalis, foliar, 3.2 to 4.1 leaf stage, 21st day after application, 15 g/ha, read-out: Growth inhibition rate (%) of crabgrass, Measured value): 0%
- inhibition at 5 g/ha (crabgrass; Digitaria sanguinalis, foliar, 3.2 to 4.3 leaf stage, 14th day after application, 5 g/ha, read-out: Growth inhibition rate (%) of crabgrass, Measured value): 0%
- inhibition at 10 g/ha (crabgrass; Digitaria sanguinalis, foliar, 3.2 to 4.3 leaf stage, 14th day after application, 10 g/ha, read-out: Growth inhibition rate (%) of crabgrass, Measured value): 0%
- inhibition at 30 g/ha (velvetleaf; Abutilon theophrasti, foliar, 3.0 to 4.0 leaf stage, 21st day after application, read-out: Growth inhibition rate (%) of velvetleaf, Measured value): 95%

SMILES: COc1cc(OC)nc(NC(=O)NS(=O)(=O)c2cc(NC=O)ccc2C(=O)N(C)C)n1 [Foramsulfuron]
- inhibition at 15 g/ha (velvetleaf; Abutilon theophrasti, foliar, 2.0 to 2.8 leaf stage, 21st day after application, 15 g/ha, read-out: Growth inhibition rate (%) of velvetleaf, Measured value): 0%
- inhibition at 30 g/ha (velvetleaf; Abutilon theophrasti, foliar, 2.0 to 2.8 leaf stage, 21st day after application, read-out: Growth inhibition rate (%) of velvetleaf, Measured value): 25%

SMILES: CNC.COc1c(Cl)ccc(Cl)c1C(=O)O [Dicamba-dimethylammonium]
- Growth inhibition rate (%) of crabgrass, Measured value (crabgrass; 3.0 to 4.3 leaf stage, 21st day after application, 100 g/ha): 0%
- Growth inhibition rate (%) of crabgrass, Measured value (crabgrass; 3.0 to 4.3 leaf stage, 21st day after application, 200 g/ha): 0%
- Growth inhibition rate (%) of crabgrass, Measured value (crabgrass; 3.5 to 5.0 leaf stage, 22nd day after application, 100 g/ha): 0%
- Growth inhibition rate (%) of crabgrass, Measured value (crabgrass; 3.5 to 5.0 leaf stage, 22nd day after application, 200 g/ha): 0%
- Growth inhibition rate (%) of crabgrass, Measured value (crabgrass; 3.7 to 4.6 leaf stage, 21st day after application, 100 g/ha): 0%
- Growth inhibition rate (%) of crabgrass, Measured value (crabgrass; 3.7 to 4.6 leaf stage, 21st day after application, 200 g/ha): 15%
- Growth inhibition rate (%) of velvetleaf, Measured value (velvetleaf; 2.0 to 2.8 leaf stage, 21st day after application, 100 g/ha): 50%
- Growth inhibition rate (%) of velvetleaf, Measured value (velvetleaf; 2.0 to 2.8 leaf stage, 21st day after application, 200 g/ha): 55%
- Growth inhibition rate (%) of velvetleaf, Measured value (velvetleaf; 3.0 to 3.8 leaf stage, 28th day after application, 100 g/ha): 50%
- Growth inhibition rate (%) of velvetleaf, Measured value (velvetleaf; 3.2 to 5.0 leaf stage, 14th day after application, 100 g/ha): 50%
- Growth inhibition rate (%) of velvetleaf, Measured value (velvetleaf; 3.2 to 5.0 leaf stage, 21st day after application, 100 g/ha): 50%
- Growth inhibition rate (%) of velvetleaf, Measured value (velvetleaf; 3.5 to 4.3 leaf stage, 21st day after application, 100 g/ha): 50%

SMILES: CCSC(=O)Oc1c(C(=O)c2ccc(S(C)(=O)=O)c(C(=O)OC)c2C)cnn1C [No. 1, 5-(ethylthio)carbonyloxy-1-methylpyrazol-4-yl 3-(methoxycarbonyl)-2-methyl-4-(methylsulfonyl)phenyl ketone]
- inhibition at 15 g/ha (crabgrass; Digitaria sanguinalis, foliar, 3.2 to 4.3 leaf stage, on the 22nd day after application, foliar, active ingredient amount 15 g/ha, read-out: Growth inhibition rate (%) of crabgrass, Measured value): 65%

SMILES: Cn1nc(C(F)(F)F)c(CS(=O)(=O)C2=NOC(C)(C)C2)c1OC(F)F [Pyroxasulfone]
- inhibition at 50 g/ha (velvetleaf; Abutilon theophrasti, foliar, 3.5 to 4.0 leaf stage, 14th day after application, 50 g/ha, read-out: Growth inhibition rate (%) of velvetleaf, Measured value): 40%
- inhibition at 100 g/ha (velvetleaf; Abutilon theophrasti, foliar, 3.5 to 4.0 leaf stage, 14th day after application, 100 g/ha, read-out: Growth inhibition rate (%) of velvetleaf, Measured value): 50%

SMILES: CP(=O)(O)CCC(N)C(=O)O (stereo not shown) [Glufosinate-ammonium]
- inhibition at 100 g/ha (velvetleaf; Abutilon theophrasti, foliar, read-out: Growth inhibition rate (%) of velvetleaf, Measured value, 3.3 to 4.3 leaf stage, 20th day after application, 100 g/ha): 0%
- inhibition at 200 g/ha (velvetleaf; Abutilon theophrasti, foliar, read-out: Growth inhibition rate (%) of velvetleaf, Measured value, 3.3 to 4.3 leaf stage, 20th day after application, 200 g/ha): 10%

SMILES: N.O=C(O)CNCP(=O)(O)O [Glyphosate-ammonium]
- Growth inhibition rate (%) of velvetleaf, Measured value (velvetleaf; 2.6 to 3.3 leaf stage, 20th day after application, 63 g/ha): 0%
- Growth inhibition rate (%) of velvetleaf, Measured value (velvetleaf; 3.0 to 4.0 leaf stage, 21st day after application, 200 g/ha): 0%
- Growth inhibition rate (%) of velvetleaf, Measured value (velvetleaf; 3.2 to 5.0 leaf stage, 14th day after application, 75 g/ha): 0%
- Growth inhibition rate (%) of velvetleaf, Measured value (velvetleaf; 3.5 to 4.1 leaf stage, 14th day after application, 100 g/ha): 25%
- Growth inhibition rate (%) of velvetleaf, Measured value (velvetleaf; 3.5 to 4.1 leaf stage, 14th day after application, 200 g/ha): 50%
- Growth inhibition rate (%) of velvetleaf, Measured value (velvetleaf; 3.5 to 4.1 leaf stage, 20th day after application, 75 g/ha): 0%
- Growth inhibition rate (%) of velvetleaf, Measured value (velvetleaf; 3.5 to 4.1 leaf stage, 20th day after application, 150 g/ha): 0%
- Growth inhibition rate (%) of velvetleaf, Measured value (velvetleaf; 3.5 to 4.3 leaf stage, 21st day after application, 75 g/ha): 0%

SMILES: COc1nc(NC(=O)NS(=O)(=O)c2ccccc2C(F)(F)F)nc(C(F)(F)F)n1 [Tritosulfuron]
- Growth inhibition rate (%) of crabgrass, Measured value (crabgrass; 3.2 to 4.2 leaf stage, 21st day after application, 15 g/ha): 0%

SMILES: CSc1nnc(C(C)(C)C)c(=O)n1N [Metribuzin]
- inhibition at 125 g/ha (crabgrass; Digitaria sanguinalis, foliar, 3.2 to 4.2 leaf stage, 21st day after application, 125 g/ha, read-out: Growth inhibition rate (%) of crabgrass, Measured value): 15%
- inhibition at 250 g/ha (crabgrass; Digitaria sanguinalis, foliar, 3.2 to 4.2 leaf stage, 21st day after application, read-out: Growth inhibition rate (%) of crabgrass, Measured value): 20%

SMILES: CCS(=O)(=O)c1cccnc1S(=O)(=O)NC(=O)Nc1nc(OC)cc(OC)n1 [Rimsulfuron]
- inhibition at 10 g/ha (velvetleaf; Abutilon theophrasti, foliar, 3.0 to 4.0 leaf stage, 21st day after application, 10 g/ha, read-out: Growth inhibition rate (%) of velvetleaf, Measured value): 75%
- inhibition at 20 g/ha (velvetleaf; Abutilon theophrasti, foliar, 3.0 to 4.0 leaf stage, 21st day after application, 20 g/ha, read-out: Growth inhibition rate (%) of velvetleaf, Measured value): 95%
- inhibition at 7 g/ha (velvetleaf; Abutilon theophrasti, foliar, 3.2 to 4.3 leaf stage, 21st day after application, 7 g/ha, read-out: Growth inhibition rate (%) of velvetleaf, Measured value): 50%
